Results: the METLIN SMRT retention time set (Domingo-Almenara et al. 2019)

Test: gradient 5% acetonitrile 3 min, to 50% in 2 min, to 85% in 15 min, held 3 min, 100 µL/min
Settings: column: Zorbax Extend-C18 2.1 x 50 mm; eluents: water / acetonitrile, 0.1% formic acid
Summary of the method: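 Retention times of pure standards were taken from adduct peaks that were selected by computer and manually inspected. Over 3 months, mixtures of ~100 molecules were run by HPLC–quadrupole time-of-flight mass spectrometry in positive and negative ionization mode. The Zorbax Extend-C18 column (2.1 × 50 mm, 1.8 μm) ran at 100 μL/min in water and acetonitrile, each containing 0.1% formic acid, with 40 μL dead volume and 900 μL dwell volume.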

Row | SMILES | RP-LC retention time
1 | COc1cc(=O)c(C(N)=O)nn1-c1ccc(F)cc1 | 579 s
2 | COc1cccc2c(C)nc(NC3=NCN(CC4CCCO4)CN3)nc12 (stereo not given) | 627 s
3 | Cc1noc(-c2cc(=O)n(CC(=O)NCc3ccc(F)cc3Cl)c3ccccc23)n1 | 891 s
4 | CCC(=O)Nc1ccc(-n2cnc(C(=O)N3CC(C)CC(C)C3)c2)nc1 (stereo not given) | 772 s
5 | CC(C)C(=O)Nc1cnc(-c2ccc(F)cc2)nc1 | 861 s
6 | CCN1C(=O)c2cccnc2Sc2cc(NC(=O)c3c(F)cccc3F)ccc21 | 808 s
7 | CCN(c1ccccc1F)S(=O)(=O)c1cc2n(c1)CCCN(C)C2=O | 780 s
8 | CCOc1cc(-c2nc(C3CC(=O)N(c4ccc(Cl)cc4)C3)no2)cc(OCC)c1OCC (stereo not given) | 1240 s
9 | COc1cc2c(cc1OC)[C@@H](C(=O)N(C)c1ccc(Cl)cc1)[C@@H]1CCCCN1C2=O | 719 s
10 | Cc1ccccc1Cn1nc(-c2nc(-c3ccc(F)cc3)no2)ccc1=O | 1130 s
11 | Cc1c(C(=O)N2CCOCC2)cnn1-c1ccc(-c2nc(C(C)(C)C)no2)cn1 | 942 s
12 | Cc1cccc(NS(=O)(=O)c2cc3n(c2)CCN(C(C)C)C3=O)c1C | 816 s
13 | COCCN1C(=O)Cc2ccccc2C1C(=O)NCc1ccccc1F (stereo not given) | 732 s
14 | Cc1ccc(Nc2c(-c3ccc(N4CCOCC4)cc3)nc3cc(C)ccn23)cc1 | 769 s
15 | CCOC(=O)c1[nH]c(C)c(CN(CC2CCCO2)C(=O)c2ccc(OC)cc2)c1C (stereo not given) | 852 s
16 | O=c1ccc(-c2ccc3c(c2)OCO3)nn1CCc1nc(-c2ccc(Cl)c(F)c2)no1 | 1050 s
17 | O=C(Cc1csc(NC(=O)c2cnccn2)n1)NCCc1c[nH]c2ccccc12 | 654 s
18 | Cc1cc(C)cc(OCc2nc(CCN(C)C(=O)Nc3ccccc3)no2)c1 | 970 s
19 | CC(C)n1c(=O)c2ccccc2n(Cc2nc(-c3ccccc3Br)no2)c1=O | 1140 s
20 | COc1ccc(Cl)cc1N1CC(c2nc(-c3ccncc3)no2)CC1=O (stereo not given) | 752 s
21 | CN(C)C(=O)c1cc(N(C)C)nc2c(Cl)cccc12 | 745 s

Row | SMILES | RP-LC retention time
22 | CCCCn1c(=O)c2c(nc3n2CCCCN3c2ccc(OCC)cc2)n(C)c1=O | 1050 s
23 | COc1ccccc1OCCNc1nc2ccncc2n(C(C)C)c1=O | 573 s
24 | O=C(Cc1cc(-c2ccc3c(c2)OCO3)on1)NCc1cccnc1 | 573 s
25 | CCn1cc(-c2nc(CC(=O)NCc3cccs3)cs2)c2cccnc21 | 805 s
26 | CCC(Oc1ccc(=O)n(-c2ccc(F)cc2)n1)C(=O)Nc1cc(OC)c(OC)c(OC)c1 (stereo not given) | 592 s
27 | O=C(NCCC1=CCCCC1)C(=O)NCc1ccsc1 | 894 s
28 | CNc1cccnc1OC1CCN(S(=O)(=O)c2ccc3c(c2)CCC3)C1 (stereo not given) | 765 s
29 | CCN(CC)c1nc2cc(C(=O)OC)ccc2c(=O)n1-c1ccc(C)cc1 | 1210 s
30 | O=C(c1cnccn1)N1CCCC1c1noc(CO)n1 (stereo not given) | 572 s
31 | CCCCS(=O)(=O)N1CCc2nc(-c3ccc(Cl)cc3)ncc2C1 | 1130 s
32 | CC1CCN(C(=O)c2ccc3c(c2)N(CC(=O)NC(C)C)C(=O)CO3)CC1 | 684 s
33 | OC1CCOC2(CCN(Cc3ccccc3OC(F)(F)F)CC2)C1 (stereo not given) | 602 s
34 | Cc1cc(C)c(S(=O)(=O)N2CC(=O)N(CC3CC3)C3(CCOCC3)C2)c(C)c1 | 944 s
35 | Cn1nccc1C(=O)NCc1ccc(-c2nc(-c3ccc(F)cc3)no2)s1 | 930 s
36 | Clc1ccc(CSc2cc(Cl)ncn2)cc1 | 1170 s
37 | CCOC(=O)c1c(N)n(Cc2ccccc2)c2nc3ccccc3nc12 | 739 s
38 | Cc1cccc2sc(NC(=O)Cc3csc(Nc4ccc(Cl)cn4)n3)nc12 | 1140 s
39 | COCCNc1c(-c2cccc(C)c2)nc2sc(C(=O)NC3CC3)c(C)n12 | 602 s
40 | COc1ccc(-c2nc3cccc(C)n3c2Nc2ccc(C)cc2)cc1 | 757 s
41 | Cc1cc(C)cc(N2CCC(NC(=O)Cc3ccsc3)C2=O)c1 (stereo not given) | 637 s
42 | O=C(CN1C(=O)CCS(=O)(=O)c2ccccc21)NCCc1ccccc1 | 745 s

Further lines, results first:

Row | RP-LC retention time | SMILES
43 | 609 s | O=C(NCCCN1CCCC1)C1CCN(Cc2cc3ccccc3n2Cc2ccccc2Cl)CC1
44 | 641 s | CCCc1nc2c(c(=O)n1CC(=O)NCc1cccs1)CCN(Cc1ccccc1)C2
45 | 603 s | Cc1ccc2oc(C(=O)N3CCC(CCN4CCCC4)CC3)cc(=O)c2c1
46 | 602 s | Cc1nc(Nc2ccc(F)cn2)sc1C(=O)N1CCN(c2ccccn2)CC1
47 | 673 s | O=C(NCc1ccccc1)c1ccc2ccnc(N3CCN(C(=O)c4ccco4)CC3)c2c1
48 | 798 s | Cc1ccc(-c2cn3c(CC(=O)NC4CCCC4)csc3n2)cc1C
49 | 1130 s | CCOCCCNC(=O)c1nc(Nc2ccccc2)c2ccccc2n1
50 | 812 s | CN(C)c1ccc(C(=O)Nc2cc(-c3ccccn3)no2)cc1
51 | 526 s | Oc1ccc(Br)cc1CN1CCN(c2cc(-c3ccncc3)[nH]n2)CC1
52 | 626 s | Cc1ccc(N2CCN(C(=O)c3cn4c(n3)CCCC4)CC2)cc1
53 | 1160 s | Cc1nc(-c2cccc(F)c2)sc1CCNC(=O)C(=O)Nc1ccccc1Cl
54 | 604 s | O=C(CN1CCCc2nc(C3CC3)ncc2C1=O)NC1CC1
55 | 607 s | O=C(CN1C(=O)CSc2cccn2-c2ccccc21)N1CCN(c2ccccn2)CC1
56 | 1060 s | Cc1c(C(=O)NC2CCCCC2)cnn1-c1cc(-c2nc(C3CC3)no2)ccn1
57 | 690 s | O=C(NCc1cccc(Cl)c1)C1CCN(c2cnc(N3CCCC3)nc2)CC1
58 | 652 s | COc1cc(C(C)=O)ccc1OCC(O)CN1CCN(c2ccccc2F)CC1 (stereo not given)
59 | 1070 s | COc1ccccc1N1CCN(c2cc(SCC(=O)Nc3cc(C)ccc3C)ncn2)CC1
60 | 910 s | O=C(C1CCN(c2nc3ccc(-c4ccccc4)nc3s2)CC1)N1CCCC1
61 | 706 s | C=CCNC(=O)C1CCN(C(=O)Nc2ccc(NC(=O)Nc3cccc(F)c3)cc2)CC1
62 | 895 s | Cc1cccc(NC(=O)C2CCN(S(C)(=O)=O)c3ccccc3O2)c1 (stereo not given)
63 | 658 s | COc1ccc(S(=O)(=O)NC2CCN(C(=O)c3ccnn3C)CC2)cc1
64 | 1230 s | CCc1ccc(NC(=O)C2CCCN(c3nc4ccccc4nc3C(F)(F)F)C2)cc1 (stereo not given)
65 | 948 s | O=C(Nc1ccc(Cl)c(C(F)(F)F)c1)C1CCN(C(=O)C2Sc3ccccc3NC2=O)CC1 (stereo not given)
66 | 1020 s | Clc1ccccc1OCc1nn2c(CSc3ccccc3)nnc2s1

Row | RP-LC retention time | SMILES
67 | 821 s | C[C@H]1CN(C(=O)c2ccc3ccccc3n2)C[C@@H]1c1nc(-c2cccnc2)no1
68 | 812 s | Cc1ccc(NC(=O)C2CCN(S(=O)(=O)c3ccc4c(c3)NC(=O)C(C)O4)CC2)c(Cl)c1 (stereo not given)
69 | 881 s | CCCN1C(=O)Cc2ccccc2C1C(=O)NCC1CCCCC1 (stereo not given)
70 | 668 s | CN(C)CCCNC(=O)C1CCN(c2nc3ccc(-c4ccccc4)nc3s2)CC1
71 | 579 s | COc1ccc(C(=O)N2CCCN(c3nnc4ccc(Cl)cn34)CC2)cn1
72 | 598 s | O=C(NCCCN1CCOCC1)c1c2c(nc3ccccc13)C(=O)N(C1CCCCC1)C2
73 | 734 s | Cc1cccc(C(=O)N2CCC3(C2)C(=O)Nc2ccccc23)c1 (stereo not given)
74 | 628 s | CCC(=O)N1CCc2cc(-c3ccc(C(=O)NCCCN4CCOCC4)cc3)ccc21
75 | 654 s | O=C(Nc1nc(-c2cccnc2)cs1)c1ccc(Br)s1
76 | 747 s | O=C([C@H]1C[C@@H](F)CN1S(=O)(=O)Cc1ccc(Cl)cc1)N1CCOCC1
77 | 833 s | O=C(c1cc(Cl)ccc1F)N1CCN(c2cc(-c3cccs3)[nH]n2)CC1
78 | 615 s | O=C(NC1CC1)c1ccccc1OCC1CCCN(Cc2cn[nH]c2-c2cccs2)C1 (stereo not given)
79 | 752 s | Cc1ccc(C2=NC3(CCN(C(=O)c4ccoc4)CC3)ON2)cc1
80 | 1140 s | Cc1nn(-c2nc(-c3ccc(F)cc3)cs2)c(C)c1CC(=O)Nc1ccccc1F
81 | 570 s | CCC(CN1CCOCC1)Nc1nc(-c2ccc(OC)cc2)nc2ccccc12 (stereo not given)
82 | 645 s | COc1cccc(-c2noc(N3CCN(c4ccccn4)CC3)n2)c1OC
83 | 604 s | O=C(Cc1ccccc1Cl)Nc1cnc(N2CCCC2)nc1
84 | 942 s | CCc1ccc2c(c1)cc(S(=O)(=O)c1ccccc1)c(=O)n2CC(=O)NC1CCCC1
85 | 745 s | O=C(NCC1CCN(S(=O)(=O)C2CC2)CC1)Oc1ccccc1
86 | 935 s | O=C(CSc1nnc2c3cc(-c4ccc(F)cc4)nn3ccn12)Nc1ccccc1Br
87 | 1010 s | O=C(Nc1cnn(-c2ncc(N3CCCCC3)cn2)c1)c1ccc(C(F)(F)F)cc1
88 | 646 s | COc1ccc(NC(=O)CCC2CCN(c3cc(NC4CC4)ncn3)CC2)cc1OC
89 | 765 s | Cc1noc(C)c1S(=O)(=O)N1C[C@@H](F)C[C@H]1C(=O)N1CCCCC1
90 | 752 s | COc1ccc(C)cc1NC(=O)Cn1nc2cc(-c3ccccc3)nc(C)n2c1=O
